Laboratory results published in patent publication US9315522B2, “Antibacterial compounds” (JANSSEN SCIENCES IRELAND UC, priority 2012, dated 2016).
In brackets after ≈: the same amount, converted by molar mass.

Key:
S. aureus = experiment: Antibacterial susceptibility testing, IC90 determination with 10% human serum (STA + 10% HS); assay type: cell-based, Staphylococcus aureus; conditions: Staphylococcus aureus, human serum at final concentration of 10%, read-out: STA + 10% HS (361.169) IC90
How it was run: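 Broth microdilution in Mueller-Hinton broth with 10% human serum, 5×10^5 CFU/ml S. aureus, two-fold compound dilutions (typically 63 to 0.49 μM), 1.25% DMSO, 16-20 h at 35° C. Growth read fluorometrically with resazurin (ex 540/em 590 nm); IC90 in μg/ml is the 90% growth-inhibitory concentration.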

[1] = Thermodynamic solubility (pH solubility profiling); assay type: physicochemical; conditions: thermodynamic from solid
Experimental: The pH solubility profiling was carried out at ambient temperature for a period of 4 days. A saturation solubility study was carried out in order to determine maximum solubility in a particular buffer solution. The compound was added to respective buffer solution until saturation point is reached. This was followed by shaking the flask for 4 days at ambient temperature. After 4 days, the solutions were filtered and injected on UPLC and the concentration was determined using a generic HPLC method.

[2] = In vivo pharmacokinetic and oral bioavailability in mouse; parameters: species or system male Swiss mice
Experimental: The in vivo pharmacokinetics and oral bioavailability of the compound of the examples were/are investigated in male Swiss mice (fed) following single intravenous (i.v.) bolus and oral (p.o.) administration. For the i.v. and p.o. solution formulations, the compound was/is dissolved in a 20% HP-β-CD solution. The pH of the formulations was/is around pH 4. All i.v. formulations were isotonic.

[3] = male, Swiss, plasma, iv, 2.5 mg/kg, 20% HP-β-cyclodextrin
[4] = male, Swiss, plasma, po, 10 mg/kg, 20% HP-β-cyclodextrin

O=C1CNCc2cc(/C=C/C(=O)N3CC4C=C(c5nccs5)CC4C3)cnc2N1 (centres unmarked) [compound 48]
IC90 (S. aureus): 0.21 µg/mL | solubility thermodynamic at 4 days ([1]; aqueous buffer, Buffer pH 4, ambient temperature): 440 µg/mL (≈ 1.08 mM) | solubility thermodynamic at 4 days ([1]; aqueous buffer, Buffer pH 7.4, ambient temperature): > 1220 µg/mL | solubility thermodynamic at 4 days ([1]; aqueous with cosolvent or surfactant or cyclodextrin, 10% HP-β-CD buffer pH 4, ambient temperature): > 2470 µg/mL | solubility thermodynamic at 4 days ([1]; aqueous with cosolvent or surfactant or cyclodextrin, 10% HP-β-CD buffer pH 7.4, ambient temperature): > 1380 µg/mL | solubility thermodynamic at 4 days ([1]; aqueous with cosolvent or surfactant or cyclodextrin, 20% HP-β-CD buffer pH 4, ambient temperature): > 4720 µg/mL | solubility thermodynamic at 4 days ([1]; aqueous with cosolvent or surfactant or cyclodextrin, 20% HP-β-CD buffer pH 7.4, ambient temperature): > 2410 µg/mL | solubility thermodynamic at 4 days ([1]; pH 2, simulated gastric fluid, 0.01N HCl, ambient temperature): > 2560 µg/mL | Vdz ([2]; i.v., 2.5 mg/kg, 20% HP-β-cyclodextrin): 2.8 L/kg | AUC(0-inf) [2, 3]: 1600 ng·h/mL | C0 [2, 3]: 4560 ng/mL | half-life ([2]; male, Swiss, plasma, iv, 2.5 mg/kg, 20% HP-β-cyclodextrin, read-out: Half life (t1/2) (converted)): 1.2 h | clearance ([2]; male, Swiss, plasma, iv, 2.5 mg/kg, 20% HP-β-cyclodextrin, read-out: Plasma clearance Cl (converted)): 26.7 mL/min/kg | AUC(0-inf) [2, 4]: 2050 ng·h/mL | Cmax [2, 4]: 483 ng/mL | Tmax [2, 4]: 1.3 h | bioavailability ([2]; male, Swiss, plasma, po, p.o. 10 mg/kg vs i.v. 2.5 mg/kg): 32%
